From patent publication US20250127740A1, “COMPOSITION CONTAINING 3-HYDROXYANTHRANILIC ACID AND COMPOUNDS THAT ALTER IRON HOMEOSTASIS AND METHOD OF ITS USE” (priority 2021, published 2025)

What was measured:
P. aeruginosa [1] = test: Inhibition of P. aeruginosa growth in liquid media (OD 600 nm) and CFUs on solid media; format: cell-based; conditions: different dosages, single compound
Method: (§1) 3HAA was tested for its ability to negatively impact bacterial growth. 3HAA was tested at different dosages for inhibition of E. coli and P. aeruginosa growth in liquid media (measured by optical density at 600 nm) and colony forming units (CFUs) on solid media.
(§2) Deferoxamine (DFO) was also tested for its ability to impact bacterial growth. Deferoxamine was tested at different dosages for inhibition of E. coli and P. aeruginosa growth in liquid media (measured by optical density at 600 nm) and CFUs on solid media.

E. coli [2] = format: cell-based; conditions: different dosages; liquid media OD 600 nm and CFUs on solid media; single compound
Method: as §1, §2

P. aeruginosa [3] = test: Colony formation (CFUs) of P. aeruginosa on culture plate; format: cell-based; conditions: 1 mM 3HAA and 15 uM DFO alone or in combination
Method: To test the effects of 3HAA and DFO on colony formation of P. aeruginosa, 1 mM 3HAA and 15 uM DFO alone or in combination were added to culture plate containing P. aeruginosa.

E. coli [4] = test: Colony size of E. coli on plates; format: cell-based; conditions: for effect on colony size (E. coli): 1 mM 3HAA or 8 mM FAC alone
Method: To test the effects of 3HAA, DFO and FAC on colony size, colony size was measured for E. coli in plates containing 1 mM 3HAA, 15 uM DFO, and 8 mM FAC alone and in combination.

bacterial growth = test: Growth lag-time in liquid media; format: cell-based; conditions: 1 mM 3HAA, 15 uM DFO, alone or combined
Method: By contrast, 1 mM 3HAA alone increased lag-time by 6% individually. 15 uM DFO alone increased lag-time by 4% individually. Combination of 1 mM 3HAA with 15 uM DFO provided multiple fold impact on growth inhibition that is statistically significant to either single treatment alone.

E. coli [5] = test: Pre-treatment of E. coli in liquid media, then colony count on DFO+3HAA plates; format: cell-based; conditions: pretreatment 1 mM 3HAA or 15 uM DFO, 16 hr at 37 degrees
Method: E. coli inoculates were grown in liquid media containing either control (no additives), 1 mM 3HAA or 15 uM DFO for 16 hr at 37 degrees with shaking. The cultures were spotted to either Control plates (no additives) or plate containing DFO+3HAA and left to dry at room temperature. After incubated at 37 degrees for 16 hours, colonies were counted.

E. coli [6] = test: Colony formation (CFUs) of E. coli on culture plate; format: cell-based
C. elegans = format: in vivo; conditions: added to culture medium of haao-1 knockout worms (elevated endogenous 3HAA)
Source text: Using the haao-1 knockout strain exposes the animals, but not their bacterial food source, to 3HAA.

E. coli infection = test: Infection of C. elegans challenged with fluorescently labeled E. coli; format: in vivo; conditions: fluorescence microscopy over 7 days
Source text: Infection was monitored using fluorescence microscopy over 7 days. Heatmap of infection progression of individual animals over days—purple 32 not infected, red=high infection.

[7] = 1 mM 3HAA and 8 mM FAC alone or in combination

| Molecule | impact on growth of P. aeruginosa (P. aeruginosa [1]) | impact on growth of E. coli (E. coli [2]) | impact on colony formation (P. aeruginosa) (P. aeruginosa [3]) | effect on colony size (E. coli) (E. coli [4]) | increase in growth lag-time (bacterial growth) | sensitization of bacteria to the 3HAA and DFO combination by pretreatment (E. coli [5]) | impact on colony formation (E. coli) (E. coli [6]; [7]) | impact on colony formation (E. coli) (E. coli [6]; 1 mM 3HAA or 15 uM DFO alone) | toxicity to C. elegans relative to wild type animals (C. elegans) | decrease of colony size / colony area (E. coli) (E. coli [4]; 1 mM 3HAA, 15 uM DFO, 8 mM FAC, alone or in combination) | protection from E. coli infection (E. coli infection; haao-1 knockout worms (high endogenous 3HAA)) | protection from E. coli infection (E. coli infection; wild type worms) |
| --- | --- | --- | --- | --- | --- | --- | --- | --- | --- | --- | --- | --- |
| Nc1c(O)cccc1C(=O)O [3HAA, 3-hydroxyanthanilic acid] | negatively affects growth of both E. coli and P. aeruginosa, but only at high doses | negatively affects growth of both E. coli and P. aeruginosa, but only at high doses | neither affected colony formation alone | increased colony size | 6% | sensitizes bacteria to the combination of 3HAA and DFO | no significant impact was observed | Neither 1 mM 3HAA nor 15 uM DFO alone showed significant impact | – | – | – | – |
| CC(=O)N(O)CCCCCNC(=O)CCC(=O)N(O)CCCCCNC(=O)CCC(=O)N(O)CCCCCN [DFO, deferoxamine, reference compound] | – | – | – | – | 4% | – | – | – | neither the combination of DFO and elevated 3HAA (haao-1) nor the combination of FAC with elevated 3HAA (haao-1) were toxic | ~8% | – | – |
| ferric ammonium citrate [FAC] | very little impact | very little impact | – | increased colony size | – | – | no significant impact was observed | – | – | – | This protection was enhanced | protected from infection |
